From PubChem BioAssay AID180 (DTP/NCI, 2004) come the findings set out here.

Where “and” joins values, the source holds several entries; their conditions need not be identical. Equal values may be shown once.

This test relates to BDF1 mice, Adenocarcinoma 755 s.c., tumor weight T/C. As to the kind of experiment: NCI In Vivo Anticancer Drug Screen. Data for tumor model Adenocarcinoma 755 (subcutaneous) in B6D2F1 (BDF1) mice. Particulars: endpoint: mean tumor weight, higher = larger tumour. A digest of the protocol: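 Compound activity was tested in mice carrying transplanted tumors. Survival or tumor size was measured, and each value is the treated-group measurement divided by that of the vehicle-treated control group (T/C).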

[1] abbreviates: dose: 50.0 mg/kg/injection, schedule: Q01DX011 (ip), vehicle: methylcellulose (MC).
Where [2] appears, read: dose: 100.0 mg/kg/injection, schedule: Q01DX011 (ip), vehicle: methylcellulose (MC).
The mark [3] stands for this setting: dose: 25.0 mg/kg/injection, schedule: Q01DX011 (ip), vehicle: methylcellulose (MC).
[4] abbreviates: dose: 75.0 mg/kg/injection, schedule: Q01DX011 (ip), vehicle: methylcellulose (MC).

Regarding `CCC(=O)O[C@H]1CC[C@H]2[C@@H]3CCC4=CC(=O)CC[C@]4(C)[C@H]3CC[C@]12C`, the T/C is, setting by setting: (dose: 125.0 mg/kg/injection, schedule: Q01DX011 (sc), vehicle: steriod suspending solution) 101 % of control and 104 % of control; (dose: 400.0 mg/kg/injection, schedule: Q01DX011 (sc), vehicle: steriod suspending solution) 69 % of control; (dose: 666.66 mg/kg/injection, schedule: Q01DX011 (sc), vehicle: steriod suspending solution) 61 % of control.
Turning to `Clc1ncnc2nc[nH]c12`, the T/C is, setting by setting: (dose: 1.87 mg/kg/injection, schedule: Q01DX006 (iv), vehicle: carboxymethylcellulose (CMC)) 96 % of control; (dose: 1.87 mg/kg/injection, schedule: Q01DX011 (im), vehicle: carboxymethylcellulose (CMC)) 47 % of control; (dose: 1.87 mg/kg/injection, schedule: Q01DX011 (ip), vehicle: carboxymethylcellulose (CMC)) 83 % of control; (dose: 1.87 mg/kg/injection, schedule: Q01DX011 (sc), vehicle: carboxymethylcellulose (CMC)) 103 % of control; (dose: 2.5 mg/kg/injection, schedule: Q01DX011 (ip), vehicle: carboxymethylcellulose (CMC)) 66 % of control; (dose: 3.12 mg/kg/injection, schedule: Q01DX011 (oral), vehicle: carboxymethylcellulose (CMC)) 110 % of control. For the same molecule, the T/C was 48 % of control (dose: 3.12 mg/kg/injection, schedule: Q#A X022 (ip), vehicle: carboxymethylcellulose (CMC)); 94 % of control (dose: 3.75 mg/kg/injection, schedule: Q01DX006 (iv), vehicle: carboxymethylcellulose (CMC)); 83 % of control (dose: 3.75 mg/kg/injection, schedule: Q01DX011 (im), vehicle: carboxymethylcellulose (CMC)); 62 % of control (dose: 3.75 mg/kg/injection, schedule: Q01DX011 (ip), vehicle: carboxymethylcellulose (CMC)); 76 % of control (dose: 3.75 mg/kg/injection, schedule: Q01DX011 (sc), vehicle: carboxymethylcellulose (CMC)); 36 % of control and 58 % of control (dose: 5.0 mg/kg/injection, schedule: Q01DX011 (ip), vehicle: carboxymethylcellulose (CMC)). Besides, the T/C was 81 % of control (dose: 5.0 mg/kg/injection, schedule: Q03DX004 (ip), vehicle: carboxymethylcellulose (CMC)); 55 % of control (dose: 6.25 mg/kg/injection, schedule: Q01DX011 (oral), vehicle: carboxymethylcellulose (CMC)); 41 % of control (dose: 6.25 mg/kg/injection, schedule: Q#A X022 (ip), vehicle: carboxymethylcellulose (CMC)); 82 % of control (dose: 7.5 mg/kg/injection, schedule: Q01DX006 (iv), vehicle: carboxymethylcellulose (CMC)); 22 % of control (dose: 7.5 mg/kg/injection, schedule: Q01DX011 (im), vehicle: carboxymethylcellulose (CMC)); 34 % of control (dose: 7.5 mg/kg/injection, schedule: Q01DX011 (ip), vehicle: carboxymethylcellulose (CMC)). Moreover, the T/C is 28 % of control (dose: 7.5 mg/kg/injection, schedule: Q01DX011 (sc), vehicle: carboxymethylcellulose (CMC)); 27 % of control (dose: 10.0 mg/kg/injection, schedule: Q01DX011 (ip), vehicle: carboxymethylcellulose (CMC)); 44 % of control (dose: 10.0 mg/kg/injection, schedule: Q01DX011 (ip), vehicle: methylcellulose (MC)); 66 % of control (dose: 10.0 mg/kg/injection, schedule: Q03DX004 (ip), vehicle: carboxymethylcellulose (CMC)); 11 % of control (dose: 12.5 mg/kg/injection, schedule: Q01DX011 (oral), vehicle: carboxymethylcellulose (CMC)); 8 % of control (dose: 12.5 mg/kg/injection, schedule: Q#A X022 (ip), vehicle: carboxymethylcellulose (CMC)). The T/C is, setting by setting: (dose: 15.0 mg/kg/injection, schedule: Q01DX006 (iv), vehicle: carboxymethylcellulose (CMC)) 25 % of control; (dose: 15.0 mg/kg/injection, schedule: Q01DX011 (ip), vehicle: carboxymethylcellulose (CMC)) 13 % of control; (dose: 15.0 mg/kg/injection, schedule: Q01DX011 (sc), vehicle: carboxymethylcellulose (CMC)) 7 % of control; (dose: 15.0 mg/kg/injection, schedule: Q03DX004 (ip), vehicle: carboxymethylcellulose (CMC)) 55 % of control; (dose: 18.75 mg/kg/injection, schedule: Q07DX002 (ip), vehicle: carboxymethylcellulose (CMC)) 46 % of control; (dose: 25.0 mg/kg/injection, schedule: Q01DX011 (oral), vehicle: carboxymethylcellulose (CMC)) 2 % of control. Besides, the T/C is 35 % of control (dose: 25.0 mg/kg/injection, schedule: Q03DX004 (ip), vehicle: carboxymethylcellulose (CMC)); 49 % of control and 66 % of control (dose: 37.5 mg/kg/injection, schedule: Q01DX001 (ip), vehicle: carboxymethylcellulose (CMC)); 16 % of control (dose: 37.5 mg/kg/injection, schedule: Q07DX002 (ip), vehicle: carboxymethylcellulose (CMC)); 3 % of control (dose: 50.0 mg/kg/injection, schedule: Q01DX011 (ip), vehicle: carboxymethylcellulose (CMC)); 5 % of control under setting [1]; 1 % of control (dose: 50.0 mg/kg/injection, schedule: Q01DX011 (sc), vehicle: carboxymethylcellulose (CMC)). Moreover, the T/C by setting is: (dose: 50.0 mg/kg/injection, schedule: Q03DX004 (ip), vehicle: carboxymethylcellulose (CMC)) 5 % of control; (dose: 75.0 mg/kg/injection, schedule: Q01DX001 (ip), vehicle: carboxymethylcellulose (CMC)) 18 % of control and 42 % of control; (dose: 75.0 mg/kg/injection, schedule: Q03DX004 (ip), vehicle: carboxymethylcellulose (CMC)) 1 % of control; (dose: 75.0 mg/kg/injection, schedule: Q07DX002 (ip), vehicle: carboxymethylcellulose (CMC)) 1 % of control; (dose: 100.0 mg/kg/injection, schedule: Q01DX011 (ip), vehicle: carboxymethylcellulose (CMC)) 1 % of control and 4 % of control; under setting [2], 6 % of control. For the same molecule, the T/C was 24 % of control and 29 % of control (dose: 150.0 mg/kg/injection, schedule: Q01DX001 (ip), vehicle: carboxymethylcellulose (CMC)); 1 % of control (dose: 150.0 mg/kg/injection, schedule: Q07DX002 (ip), vehicle: carboxymethylcellulose (CMC)); 8 % of control and 17 % of control (dose: 175.0 mg/kg/injection, schedule: Q01DX001 (ip), vehicle: carboxymethylcellulose (CMC)); 4 % of control (dose: 175.0 mg/kg/injection, schedule: Q07DX002 (ip), vehicle: carboxymethylcellulose (CMC)); 4 % of control (dose: 300.0 mg/kg/injection, schedule: Q01DX011 (ip), vehicle: methylcellulose (MC)); 5 % of control and 8 % of control (dose: 350.0 mg/kg/injection, schedule: Q01DX001 (ip), vehicle: carboxymethylcellulose (CMC)).
Take `Cc1cccc(CSc2ncnc3nc[nH]c23)n1`: the T/C is, setting by setting: (dose: 12.5 mg/kg/injection, schedule: Q01DX011 (ip), vehicle: methylcellulose (MC)) 66 % of control; under setting [3], 51 % of control; under setting [1], 17 % of control; under setting [2], 6 % of control.
Take `CSc1ncnc2c1ncn2C1CCCS1` (centres undefined): the T/C runs as follows: under setting [3], 61 % of control; under setting [4], 66 % of control; (dose: 225.0 mg/kg/injection, schedule: Q01DX011 (ip), vehicle: methylcellulose (MC)) 54 % of control.
As to `CCCn1cnc2c(SCC(=O)O)nc(N)nc21`, the T/C runs as follows: under setting [3], 58 % of control; under setting [1], 37 % of control; under setting [2], 46 % of control; (dose: 200.0 mg/kg/injection, schedule: Q01DX011 (ip), vehicle: methylcellulose (MC)) 36 % of control.
For `NCC(=O)Nc1ccc(O)cc1`, the T/C (dose: 200.0 mg/kg/injection, schedule: Q01DX011 (ip), vehicle: carboxymethylcellulose (CMC)) is 22 % of control and 42 % of control.
Take `O=c1[nH]cnc2nc(S(=O)(=O)F)[nH]c12`: the T/C (dose: 60.0 mg/kg/injection, schedule: Q01DX011 (ip), vehicle: carboxymethylcellulose (CMC)) is 117 % of control; the T/C (dose: 120.0 mg/kg/injection, schedule: Q01DX011 (ip), vehicle: carboxymethylcellulose (CMC)) is 121 % of control; the T/C (dose: 240.0 mg/kg/injection, schedule: Q01DX011 (ip), vehicle: carboxymethylcellulose (CMC)) is 115 % of control.
As for `CCc1c(Cl)nc(N)nc1Nc1ccccc1C`, the T/C was 115 % of control (dose: 15.0 mg/kg/injection, schedule: Q01DX011 (ip), vehicle: methylcellulose (MC)); 88 % of control (dose: 62.0 mg/kg/injection, schedule: Q01DX011 (ip), vehicle: methylcellulose (MC)); 114 % of control (dose: 125.0 mg/kg/injection, schedule: Q01DX011 (ip), vehicle: methylcellulose (MC)); 94 % of control (dose: 250.0 mg/kg/injection, schedule: Q01DX011 (ip), vehicle: methylcellulose (MC)).
Take `Nc1nc(SCc2ccccc2)c2ncn(C3OC(CO)C(O)C3O)c2n1` (centres undefined): the T/C under setting [3] is 10 % of control, the T/C under setting [1] is 7 % of control, the T/C under setting [4] is 8 % of control and the T/C under setting [2] was 6 % of control.
